Measurements taken from patent US20070243273A1, “Reduction of the Deleterious Effects of Tobacco Smoking” (SaviPu Pharmaceuticals, priority 2006, published 2007).

Columns and labels:
[1] = system: benzo[a]pyrene-induced transformation of RTE cells; test: rat tracheal epithelial (RTE) cell focus inhibition assay; assay type: cell-based
Description: (§1) The rat tracheal epithelial (RTE) cell focus inhibition assay was used to identify potential chemopreventive activity of tanshinone IIA. Tanshinone IIA was evaluated for its ability to inhibit benzo[a]pyrene-induced transformation of RTE cells. Tracheal epithelial cells were isolated from 8-12 week-old male Fisher 344 rats and plated on collagen coated dishes. Initially, a nontoxic concentration of tanshinone IIA was determined by treating RTE cells with a range of 1.5 nM to 3000 nM of tanshinone IIA. […] About 10% cells survived at a concentration of 1500 nM. Freshly isolated RTE cells were exposed to benzo[a]pyrene alone or in combination with tanshinone IIA. Benzo[a]pyrene was washed out after an exposure of 24 h. The maximal non-toxic concentration and four half log concentrations of tanshinone IIA (300 nM to 3 nM) were used for the chemopreventive assay. After 30 days in culture, transformed foci were scored and inhibition was quantitated. […] A positive control of retinoic acid inhibited the transformation frequency by 50% at 1 nM.

RTE cells = test: toxicity of tanshinone IIA to RTE cells; assay type: cell-based, rat
Description: as §1

Compound: Cc1coc2c1C(=O)C(=O)c1c-2ccc2c1CCCC2(C)C [Tanshinone IIA]
- prevention of benzo[a]pyrene-induced transformation of rat tracheal epithelial cells ([1]; 3 nM): totally prevented
- inhibition of transformation frequency ([1]; each dose level, 300 nM to 3 nM, benzo[a]pyrene exposure 24 h, foci scored after 30 days in culture): complete inhibition
- cells survived (RTE cells; 1500 nM): About 10%
- concentration found nontoxic to RTE cells (RTE cells; tested range 1.5 nM to 3000 nM): ≤ 150 nM
- toxicity to the cells (RTE cells; very low concentrations (3 nM)): nontoxic

Compound: CC1=C(/C=C/C(C)=C/C=C/C(C)=C/C(=O)O)C(C)(C)CCC1 [retinoic acid, reference compound]
- inhibition at 0.001 µM ([1]; Rattus norvegicus, 1 nM, positive control, read-out: inhibition of transformation frequency): 50%
